Test results reported in the supplement of paper PMC11208160.

Experiment: recombinant barcode read abundance after kanamycin selection (control-corrected) (log10(CPM+1)); higher = more efficient recombination; sequences stand for … in AGTGCAGAGAAAATCGGCCAGTTTTCTCTGCCTGCAGTCCGCATGCCGT…AGATTTATGCAGCGGACTGCCTTTCTCCCAAAGTGATAAACCGGACAGTATCATGGACCGGTTTTCCCGGTAATCCGTATTTGCAAGGTTGGTTTCACT; site = the 11-nt target
Summary of the method: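 Pooled E. coli screen pairing targets with IS621 bridge RNA target-binding loops. Each oligo (promoter, target, barcode, J23119-driven first 104 bridge RNA bases) was Gibson-cloned into a vector with the remaining 73 bp and T7-inducible recombinase, then co-electroporated with a donor plasmid. Two replicates each were plated on chloramphenicol/ampicillin LB agar (control) or chloramphenicol/ampicillin/kanamycin with 0.1 mM IPTG. Recombination efficiency is recombinant-junction barcode counts as CPM, averaged, control-corrected, reported as log10(CPM+1).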
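Further: IS621 recombinase and bridge RNA in Escherichia coli cells.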

| Sequence | recombinant barcode read abundance (log10) |
| --- | --- |
| GGGCCTGCTTGGGTTCTAACCTGTTGCCA (site GGGCCTGCTTG) | 1.18 |
| GTCACAGCTTGGGTTCTAACCTGTTGCCT (site GTCACAGCTAG) | 1.23 |
| TGTAAGACTTGGGTTCTAACCTGTTGCAG (site GAACGCTCTAA) | 0.0634 |
| AGAAAGTCTTGGGTTCTAACCTGTTGCGT (site AGAGAGTCTAG) | 0.363 |
| GAGCCGACTTGGGTTCTAACCTGTTGCAG (site GAGCCGACTCT) | 2.25 |
| TCCGCTGCTTGGGTTCTAACCTGTTGCCT (site TCCGCTGCTAG) | 0.283 |
| GGCGCGTCTTGGGTTCTAACCTGTTGCCT (site GGCGCATCTAG) | 0.607 |
| CCGTTGTCTTGGGTTCTAACCTGTTGCTA (site CCGTTGTCTTA) | 0.48 |
| GTTGGAGCTTGGGTTCTAACCTGTTGCCT (site GTTCGAGCTAG) | 0.487 |
| GCATGACCTTGGGTTCTAACCTGTTGCAG (site CACAATACTAG) | 0.343 |
| ACAACCTCTTGGGTTCTAACCTGTTGCCG (site ACAACCTCTCG) | 1.23 |
| AGCGGCCCTTGGGTTCTAACCTGTTGCCT (site AGCGGCCCTAG) | 1.26 |
| AATACCACTTGGGTTCTAACCTGTTGCCT (site AATACCACTAG) | 0.576 |
| GCTAGCCCTTGGGTTCTAACCTGTTGCGG (site GCGAGCCCTAC) | 0.0935 |
| TGAGTTCCTTGGGTTCTAACCTGTTGCTT (site TGAGTACCTAA) | 0.0626 |
| AATCGAGCTTGGGTTCTAACCTGTTGCGG (site TCCGCTTCTAA) | 0.0864 |
| AGCCCGCCTTGGGTTCTAACCTGTTGCCT (site GGCCCGCCTAG) | 0.178 |
| AAAGTACCTTGGGTTCTAACCTGTTGCCT (site GAAGTACCTAG) | 0.0449 |
| GATAGGGCTTGGGTTCTAACCTGTTGCGG (site TATAGGGCTCG) | 0.362 |
| AGAGCCACTTGGGTTCTAACCTGTTGCTA (site GCCATTCCTAT) | 0.0124 |
| CGCTGATCTTGGGTTCTAACCTGTTGCCT (site CGCTGATCTAG) | 0.0169 |
| GGCATATCTTGGGTTCTAACCTGTTGCCT (site AGTATATCTAG) | 0.0602 |

| Sequence | recombinant barcode read abundance (log10) |
| --- | --- |
| CGCTCCTCTTGGGTTCTAACCTGTTGCCT (site CGCTCCTCTAG) | 0.027 |
| TCAATCCCTTGGGTTCTAACCTGTTGCCT (site TCTATCCCTAG) | 0.0124 |
| GCTCTAGCTTGGGTTCTAACCTGTTGCCT (site GCTCTAGCTAG) | 0.0295 |
| TATGGTTCTTGGGTTCTAACCTGTTGCCT (site TATGGTTCTAG) | 0.502 |
| GAGAGGTCTTGGGTTCTAACCTGTTGCCT (site GAGAGGTCTAG) | 1.56 |
| CGTACCGCTTGGGTTCTAACCTGTTGCCT (site CCTACCGCTAA) | 0.153 |
| GTTTGGTCTTGGGTTCTAACCTGTTGCCT (site GTTTGTTCTAG) | 0.0972 |
| TCCGCTGCTTGGGTTCTAACCTGTTGCCT (site TCCGCTTCTAG) | 0.00679 |
| AACAATGCTTGGGTTCTAACCTGTTGCCT (site AACACTGCTAG) | 0.33 |
| CAAAGTCCTTGGGTTCTAACCTGTTGCAT (site CAAAGTCCTAG) | 0.59 |
| GGCAACTCTTGGGTTCTAACCTGTTGCCT (site AAGTTAGCTCC) | 0 |
| GTGCAGACTTGGGTTCTAACCTGTTGCCT (site GTTCAGACTAG) | 0.367 |
| CTCGGTTCTTGGGTTCTAACCTGTTGCCT (site CTCGGTTCTAG) | 1.41 |
| AACGAGTCTTGGGTTCTAACCTGTTGCCT (site ATCGAGTCTAG) | 0.244 |
| TAGCCTTCTTGGGTTCTAACCTGTTGCTA (site TAGCCTTCTCA) | 0.0251 |
| GTGGTAACTTGGGTTCTAACCTGTTGCCT (site GTGGTATCTAG) | 0.0678 |
| GAATCTACTTGGGTTCTAACCTGTTGCTT (site GACTCTACTAA) | 0.0804 |
| GTGGAGGCTTGGGTTCTAACCTGTTGCCT (site GTGGAGGCTAG) | 1.5 |
| CTATGTGCTTGGGTTCTAACCTGTTGCAT (site CTATGTGCTAG) | 0.0201 |
| CCAAGGGCTTGGGTTCTAACCTGTTGCGG (site CCAAGGGCTCC) | 2.52 |
| CTATTTACTTGGGTTCTAACCTGTTGCGG (site CTATTTACTCC) | 0.781 |
| TGGTGCCCTTGGGTTCTAACCTGTTGCGG (site TGGTGCCCTCC) | 1.45 |

| Sequence | recombinant barcode read abundance (log10) |
| --- | --- |
| AAATGGTCTTGGGTTCTAACCTGTTGCTA (site AAACGGTCTTA) | 0.814 |
| TAGAAGACTTGGGTTCTAACCTGTTGCAT (site TATAAGACTGT) | 0.0979 |
| CTACGTTCTTGGGTTCTAACCTGTTGCAC (site CTACGCTCTGT) | 0 |
| AATGTACCTTGGGTTCTAACCTGTTGCCT (site TATGTACCTAG) | 1.27 |
| GTTGGAGCTTGGGTTCTAACCTGTTGCCT (site GTTTGAGCTAG) | 0.304 |
| CCTGGGCCTTGGGTTCTAACCTGTTGCCT (site CGTGGGCCTAG) | 0.0559 |
| CTGCTAGCTTGGGTTCTAACCTGTTGCAG (site CTGCTAGCTCT) | 1.08 |
| TCGAACCCTTGGGTTCTAACCTGTTGCCT (site TCGAAACCTAG) | 0.36 |
| AGAAGTACTTGGGTTCTAACCTGTTGCGG (site GTAAGTACTCC) | 0.0235 |
| GAGCGCTCTTGGGTTCTAACCTGTTGCTC (site GAGCGCTCTGA) | 1.18 |
| GACTATGCTTGGGTTCTAACCTGTTGCCT (site GCCTATGCTAG) | 0.291 |
| GTTCAAACTTGGGTTCTAACCTGTTGCAT (site ATTCAAACTAG) | 0.245 |
| CCATTCCCTTGGGTTCTAACCTGTTGCTA (site TTGACGGCTAG) | 0.0589 |
| GACCGTGCTTGGGTTCTAACCTGTTGCCT (site GACCGAGCTAG) | 0.0758 |
| CTCTACACTTGGGTTCTAACCTGTTGCTG (site CTCGACACTCA) | 0.116 |
| TAACGGTCTTGGGTTCTAACCTGTTGCTT (site TAACGATCTAT) | 0.44 |
| CGTGGTCCTTGGGTTCTAACCTGTTGCAT (site CGTGGTCCTAC) | 0.809 |
| ACATGTCCTTGGGTTCTAACCTGTTGCCT (site ACATGTCCTAG) | 0.828 |
| TATTTGTCTTGGGTTCTAACCTGTTGCCA (site CACTTGTCTTG) | 0.023 |
| AAACCGCCTTGGGTTCTAACCTGTTGCCT (site AAACGGCCTAG) | 0.163 |
| CTACACACTTGGGTTCTAACCTGTTGCTC (site CTACACACTTA) | 0.0402 |
| TACCACTCTTGGGTTCTAACCTGTTGCCT (site GACCACTCTAG) | 0.13 |
